Laboratory results taken from ChEMBL document CHEMBL1201862, “PubChem BioAssay data set” (2004).
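Protocol summary: plate cells (96-well), add compound at 5 concentrations, incubate 48 h, interpolate endpoints linearly. GI50 = concentration required for 50% inhibition of growth.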 The source made the active and inactive calls. Rule as the data show it: active = GI50 up to about 1.1 µM and inactive = higher.

Columns and labels:
Assay in all cases: inhibition of tumour cell growth, NCI panel, 48 h
[1] = test system: 786-0
[2] = test system: A498
[3] = test system: A549
[4] = test system: ACHN
[5] = test system: BT-549
[6] = test system: CAKI-1
[7] = test system: CCRF-CEM
[8] = test system: COLO 205
[9] = test system: DU-145
[10] = test system: EKVX
[11] = test system: HCC 2998
[12] = test system: HCT-116
[13] = test system: HCT-15
[14] = test system: HOP-62
[15] = test system: HOP-92
[16] = test system: HT-29
[17] = test system: Hs-578T
[18] = test system: IGROV-1
[19] = test system: KM12
[20] = test system: LOX IMVI
[21] = test system: M14
[22] = test system: MCF7
[23] = test system: MDA-MB-231
[24] = test system: MDA-MB-435
[25] = test system: MDA-N
[26] = test system: Malme-3M
[27] = test system: NCI-H226
[28] = test system: NCI-H23
[29] = test system: NCI-H460
[30] = test system: NCI-H522
[31] = test system: NCI/ADR-RES
[32] = test system: OVCAR-3
[33] = test system: OVCAR-4
[34] = test system: OVCAR-5
[35] = test system: OVCAR-8
[36] = test system: PC-3
[37] = test system: RPMI-8226
[38] = test system: RXF 393
[39] = test system: SF-268
[40] = test system: SF-295
[41] = test system: SF-539
[42] = test system: SK-MEL-28
[43] = test system: SK-MEL-2
[44] = test system: SK-MEL-5
[45] = test system: SK-OV-3
[46] = test system: SN12C
[47] = test system: SNB-19
[48] = test system: SNB-75
[49] = test system: SR
[50] = test system: SW-620
[51] = test system: T47D
[52] = test system: TK-10
[53] = test system: U-251
[54] = test system: UACC-257
[55] = test system: UACC-62
[56] = test system: UO-31
[57] = test system: HL-60
[58] = test system: K562
[59] = test system: MOLT-4

NC(=O)c1csc(C2(O)COC(CO)C2O)n1 (stereo not drawn) was tested, and the GI50 [1] was > 100 µM (inactive), the GI50 [2] was > 100 µM (inactive) and the GI50 [3] was > 100 µM (inactive). For the same compound, the GI50 [4] was > 100 µM (inactive), the GI50 [5] was > 100 µM (inactive) and the GI50 [6] was > 100 µM (inactive). The GI50 [7] was > 100 µM (inactive), the GI50 [8] was > 100 µM (inactive) and the GI50 [9] was > 100 µM (inactive). The GI50 [10] was > 100 µM (inactive), the GI50 [11] was > 100 µM (inactive) and the GI50 [12] was > 100 µM (inactive). The GI50 [13] was greater than 100 µM, the GI50 [14] was > 100 µM (inactive) and the GI50 [15] was > 100 µM (inactive). For the same compound, the GI50 [16] was > 100 µM (inactive), the GI50 [17] was > 100 µM (inactive) and the GI50 [18] was > 100 µM (inactive). The GI50 [19] was > 100 µM (inactive), the GI50 [20] was > 100 µM (inactive) and the GI50 [21] was > 100 µM (inactive). The GI50 [22] was > 100 µM (inactive), the GI50 [23] was > 100 µM (inactive) and the GI50 [24] was > 100 µM (inactive). The GI50 [25] was > 100 µM (inactive), the GI50 [26] was > 100 µM (inactive) and the GI50 [27] was > 100 µM (inactive). The GI50 [28] was > 100 µM (inactive), the GI50 [29] was > 100 µM (inactive) and the GI50 [30] was > 100 µM (inactive). The GI50 [31] was > 100 µM (inactive), the GI50 [32] was > 100 µM (inactive) and the GI50 [33] was > 100 µM (inactive). For the same compound, the GI50 [34] was > 100 µM (inactive), the GI50 [35] was > 100 µM (inactive) and the GI50 [36] was > 100 µM (inactive). For the same compound, the GI50 [37] was > 100 µM (inactive), the GI50 [38] was > 100 µM (inactive) and the GI50 [39] was > 100 µM (inactive). The GI50 [40] was > 100 µM (inactive), the GI50 [41] was > 100 µM (inactive) and the GI50 [42] was > 100 µM (inactive). For the same compound, the GI50 [43] was > 100 µM (inactive), the GI50 [44] was > 100 µM (inactive) and the GI50 [45] was > 100 µM (inactive). For the same compound, the GI50 [46] was > 100 µM (inactive), the GI50 [47] was > 100 µM (inactive) and the GI50 [48] was > 100 µM (inactive). The GI50 [49] was > 100 µM (inactive), the GI50 [50] was > 100 µM (inactive) and the GI50 [51] was > 100 µM (inactive). For the same compound, the GI50 [52] was > 100 µM (inactive), the GI50 [53] was > 100 µM (inactive) and the GI50 [54] was > 100 µM (inactive). For the same compound, the GI50 [55] was > 100 µM (inactive) and the GI50 [56] was > 100 µM (inactive).
With Cc1n[nH]c(=O)c2cc(-c3ccccc3)[nH]c12 the GI50 [1] was > 100 µM (inactive), the GI50 [2] was 25.9 µM (inactive) and the GI50 [3] was 49 µM (inactive). For the same compound, the GI50 [4] was 32.8 µM (inactive), the GI50 [5] was 91.4 µM (inactive) and the GI50 [6] was > 100 µM (inactive). For the same compound, the GI50 [7] was 48.2 µM (inactive), the GI50 [8] was 27.7 µM (inactive) and the GI50 [9] was 94.8 µM (inactive). For the same compound, the GI50 [10] was 36.6 µM (inactive), the GI50 [11] was 44.3 µM (inactive) and the GI50 [12] was 52.6 µM (inactive). For the same compound, the GI50 [13] was 54.2 µM, the GI50 [57] was 54 µM (inactive) and the GI50 [14] was > 100 µM (inactive). For the same compound, the GI50 [15] was > 100 µM (inactive), the GI50 [16] was 33.2 µM (inactive) and the GI50 [17] was 26.4 µM (inactive). The GI50 [18] was 70.6 µM (inactive), the GI50 [58] was 38.6 µM (inactive) and the GI50 [19] was 88.5 µM (inactive). For the same compound, the GI50 [20] was 58.7 µM (inactive), the GI50 [21] was 53.3 µM (inactive) and the GI50 [22] was 30.8 µM (inactive). For the same compound, the GI50 [23] was 40.8 µM (inactive), the GI50 [24] was 51.9 µM (inactive) and the GI50 [25] was 73.3 µM (inactive). For the same compound, the GI50 [59] was 17.6 µM (inactive), the GI50 [26] was 64.1 µM (inactive) and the GI50 [27] was 72.9 µM (inactive). For the same compound, the GI50 [28] was 84.1 µM (inactive), the GI50 [29] was 48 µM (inactive) and the GI50 [31] was 57.8 µM (inactive). For the same compound, the GI50 [32] was 54.1 µM (inactive), the GI50 [33] was 52.6 µM (inactive) and the GI50 [34] was 50.7 µM (inactive). For the same compound, the GI50 [35] was 72.3 µM (inactive), the GI50 [36] was 34.5 µM (inactive) and the GI50 [37] was 37.6 µM (inactive). For the same compound, the GI50 [38] was > 100 µM (inactive), the GI50 [39] was 59.7 µM (inactive) and the GI50 [40] was 35.8 µM (inactive). The GI50 [41] was > 100 µM (inactive), the GI50 [43] was 31 µM (inactive) and the GI50 [44] was 41.6 µM (inactive). The GI50 [45] was > 100 µM (inactive), the GI50 [46] was 75.3 µM (inactive) and the GI50 [47] was > 100 µM (inactive). The GI50 [48] was 39.2 µM (inactive), the GI50 [49] was 46.8 µM (inactive) and the GI50 [50] was > 100 µM (inactive). For the same compound, the GI50 [51] was 27.5 µM (inactive), the GI50 [52] was 59.3 µM (inactive) and the GI50 [53] was 51.2 µM (inactive). The GI50 [54] was 49.8 µM (inactive), the GI50 [55] was 33.8 µM (inactive) and the GI50 [56] was 49.3 µM (inactive).
